Earlier results, collected in US12370168B2 (scPharmaceuticals Inc., priority 2013, dated 2025).

Settings: as described in the '361 patent; cited from earlier work

NC(CO)(CO)CO.NS(=O)(=O)c1cc(C(=O)O)c(NCc2ccco2)cc1Cl [tris(hydroxymethyl)aminomethane salt of furosemide]
pH: 6-6.5
